# Source: patent US9181234B2, “Antibacterial compounds” (priority 2010, dated 2015)
# Like-named read-outs stand apart in the source and are kept apart here.
# Experiments:
# [1] = Pharmacokinetic assay, IV and oral PK profile, mouse; format: in vivo; settings: plasma; for bioavailability: [AUCoral/AUCiv]×100%, 3 mg/kg, read-out: F (%) bioavailability
# Method: (§1) Pharmacokinetic Assays: Determination of PK Profile
# (§2) The pharmacokinetic profiles of compounds were determined by measuring the compound concentration in plasma by LC/MS/MS following a single intravenous or peroral administration of the compounds at a dose of 3 mg/kg. The concentrations described are the mean plasma concentrations at each time point from three animals. Intravenous dose formulation was administered as a single bolus dose through the tail vein. Oral dose formulation was administered to animals by an oral gavage needle. In both cases the dose volume was 5.0 mL/kg. Blood was collected from rats using a jugular vein catheter and from anesthetized mice through a capillary guided into the retro-orbital plexus. The collected blood was centrifuged to obtain plasma and the compounds extracted into methanol prior to determining the compound concentration by LC/MS/MS. The results for selected compounds of the invention are shown in FIGS. 2 to 8 where the X axis denotes time (hours) and the Y axis denotes plasma concentration (ng/mL). The Cmaxoral (μg/mL), AUCiv (μg·hr/mL), AUCoral (μg.hr/mL) and F(%) values are provided in the following table where Cmaxoral is the maximum oral concentration, AUC is area under the curve for intraveneous (IV) and oral and F (%) represents compound bioavailability as calculated by [AUCoral/AUCiv]×100%.
# [2] = test system: Streptococcus pyogenes (Isolate ID ATCC 51339); assay: Antibacterial activity, MIC, S. pyogenes; format: cell-based; settings: Streptococcus pyogenes, ATCC51339, Gram positive strain; broth microdilution or agar dilution
# Method in brief: (§3)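 Readout is the MIC, established according to CLSI standard M7-A7 using either agar dilution or broth microdilution.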
# [3] = test system: Staphylococcus aureus (Isolate ID ATCC 29213); assay: Antibacterial activity, MIC, S. aureus; format: cell-based; settings: Staphylococcus aureus, ATCC29213, Gram positive strain; broth microdilution or agar dilution
# Method in brief: as §3
# [4] = Pharmacokinetic assay, IV and oral PK profile, rat; format: in vivo; settings: plasma; for bioavailability: [AUCoral/AUCiv]×100%, 3 mg/kg, read-out: F (%) bioavailability
# Method: as §1, §2
# physchem = settings: pH 7.4, aqueous buffer, kinetic from dmso stock
# Method in brief: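 DMSO doubling dilutions were diluted twenty-fold into 100 mM citrate (pH 4), PBS (pH 7.4) or carbonate-bicarbonate (pH 9). After 24 h equilibration at room temperature, absorbance was read at 620 nm. The reported value is the highest concentration without measurable precipitate.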
# [5] = test system: Enterococcus faecalis (Isolate ID ATCC 29212); assay: Antibacterial activity, MIC, E. faecalis; format: cell-based; settings: Enterococcus faecalis, ATCC29212; Gram positive strain; broth microdilution or agar dilution
# Method in brief: as §3
# [6] = test system: Haemophilus influenzae (Isolate ID ATCC 49247); assay: Antibacterial activity, MIC, H. influenzae; format: cell-based; settings: Haemophilus influenzae, ATCC49247; Gram negative strain; broth microdilution or agar dilution
# Method in brief: as §3
# [7] = molecular target: T1, Gyrase enzyme (A2B2 complex from Staphylococcus aureus) (UniProt P0A0K8); assay: Gyrase ATPase assay (S. aureus enzyme); format: biochemical
# T1 construct: 2 mU/μl Gyrase enzyme (A2B2 complex from Staphylococcus aureus); Alternatively
# Method: On-Target Enzyme Assay: Determination of Gyrase ATPase Activity
# Gyrase converts ATP into ADP and inorganic phosphate. The released phosphate can be detected by the addition of malachite green solution and measured by monitoring the increase in absorbance at 600 nm. The ATPase assay is carried out in a buffer containing 2 mU/μl Gyrase enzyme (A2B2 complex from Staphylococcus aureus), 0.08 mg/ml double-stranded DNA, 8 mM HEPES.KOH pH 7.6, 100 mM K glutamate, 2 mM Mg acetate, 2 mM DTT, 0.01 mg/ml BSA, and 5% DMSO solution containing the inhibitor. Alternatively, the ATPase assay is carried out in a buffer containing 4.8 μg/mL Gyrase enzyme (A2B2 complex from Escherichia coli), 0.08 μg/mL ssDNA, 35 mM Tris pH 7.5, 24 mM KCl, 2 mM MgCl2, 6.5% Glycerol, 2 mM DTT, 1.8 mM Spermidine, 0.5 mg/mL BSA and 5% DMSO solution containing the inhibitor. The reaction is started by adding ATP to a final concentration of 1 mM and allowed to incubate at 30° C. for 60 minutes. The reaction is stopped by adding […] of malachite green solution (0.034% malachite green, 10 mM ammonium molybdate, 1 M HCl, 3.4% ethanol, 0.01% tween 20). Colour is allowed to develop for 5 minutes and the absorbance at 600 nm is measured spectrophotometrically. The IC50 values are determined from the absorbance readings using no compound and no enzyme controls.
# [8] = po, single peroral dose 3 mg/kg, read-out: AUCoral
# [9] = single intravenous dose 3 mg/kg, read-out: AUCiv
# [10] = Solubility Range (maximum solubility)
Compound,bioavailability ([1]; po),"AUC [1, 8]","AUC [1, 9]",Cmaxoral ([1]; single peroral dose 3 mg/kg),MIC [2],MIC [3],bioavailability ([4]; po),"AUC [4, 8]","AUC [4, 9]",Cmaxoral ([4]; single peroral dose 3 mg/kg),solubility at 24 h (physchem; Solubility (pH 7.4)),solubility at 24 h (physchem; Solubility Range),MIC [5],MIC [6],solubility at 24 h (physchem; Max Solubility),solubility at 24 h (physchem; [10]),"IC50 ([7]; enzyme source (S. aureus or E. coli) not given; 1 mM ATP, 30° C., 60 minutes; read-out: Gyrase ATPase activity (IC50))","IC50 ([7]; read-out: Gyrase ATPase activity (IC50); enzyme source (S. aureus or E. coli) not given; 1 mM ATP, 30° C., 60 minutes)"
CCNC(=O)Nc1nc2cc(-c3ccc(N4CCC(C)(C(=O)O)CC4)nc3)cc(-c3ccccn3)c2s1 [Compound 4],33%,2500 ng·h/mL,7600 ng·h/mL,1700 ng/mL,≤ 0.25 µg/mL,0.25 to 1 µg/mL,31%,2100 ng·h/mL,6600 ng·h/mL,600 ng/mL,≥ 800 µg/mL,> 800 µg/mL,≤ 0.25 µg/mL,1 to 16 µg/mL,≥ 800 µg/mL,> 800 µg/mL,,
"CCNC(=O)Nc1nc2cc(-c3cnc(N4CCC(CC)(C(=O)OCC)CC4)nc3)cc(-c3cnc(N4CCC(CC)(C(=O)OCC)CC4)nc3)c2o1 [Compound 234, Diethyl 1,1′-({2-[(ethylcarbamoyl)amino]-1,3-benzoxazole-5,7-diyl}dipyrimidine-5,2-diyl)bis(4-ethylpiperidine-4-carboxylate)]",,,,,> 16 µg/mL,> 16 µg/mL,,,,,,,,,,,> 1370 nM,
"CCNC(=O)Nc1nc2cc(-c3nsc(N4CCC(CC)(C(=O)O)CC4)n3)cc(-c3ccccn3)c2s1 [Compound 232, 4-ethyl-1-(3-{2-[(ethylcarbamoyl)amino]-7-(pyridin-2-yl)-1,3-benzothiazol-5-yl}-1,2,4-thiadiazol-5-yl)piperidine-4-carboxylic acid]",,,,,> 16 µg/mL,1 to 16 µg/mL,,,,,,,,> 16 µg/mL,,,,930 nM

# The next lines start with results.
bioavailability ([1]; po),"AUC [1, 8]","AUC [1, 9]",Cmaxoral ([1]; single peroral dose 3 mg/kg),MIC [2],MIC [3],bioavailability ([4]; po),"AUC [4, 8]","AUC [4, 9]",Cmaxoral ([4]; single peroral dose 3 mg/kg),solubility at 24 h (physchem; Solubility (pH 7.4)),solubility at 24 h (physchem; Solubility Range),MIC [5],MIC [6],solubility at 24 h (physchem; Max Solubility),solubility at 24 h (physchem; [10]),Compound,"IC50 ([7]; enzyme source (S. aureus or E. coli) not given; 1 mM ATP, 30° C., 60 minutes; read-out: Gyrase ATPase activity (IC50))","IC50 ([7]; read-out: Gyrase ATPase activity (IC50); enzyme source (S. aureus or E. coli) not given; 1 mM ATP, 30° C., 60 minutes)"
87%,12500 ng·h/mL,14300 ng·h/mL,6100 ng/mL,≤ 0.25 µg/mL,≤ 0.25 µg/mL,80.4%,22200 ng·h/mL,27700 ng·h/mL,3500 ng/mL,≥ 800 µg/mL,> 800 µg/mL,≤ 0.25 µg/mL,1 to 16 µg/mL,,,CCNC(=O)Nc1nc2cc(-c3cnc(N4CCC(CC)(C(=O)O)CC4)nc3)cc(-c3ccccn3)c2s1 [Compound 98],,
83%,16500 ng·h/mL,20000 ng·h/mL,4400 ng/mL,≤ 0.25 µg/mL,≤ 0.25 µg/mL,95.9%,34800 ng·h/mL,36300 ng·h/mL,5500 ng/mL,≥ 800 µg/mL,> 800 µg/mL,≤ 0.25 µg/mL,1 to 16 µg/mL,≥ 800 µg/mL,> 800 µg/mL,C=CCC1(C(=O)O)CCN(c2ncc(-c3cc(-c4ccccn4)c4sc(NC(=O)NCC)nc4c3)cn2)CC1 [Compound 136],,
